Measurements published in patent US20140094446A1, “Cyclic Amino Acids for the Treatment of Pain” (Therexcell Pharma Inc., priority 2008, published 2014).
“Also recorded” adds a separate entry of the source. Marks after values point to notes of the source that are not given here.

Tests used:
[1] = system: mice; test: Sedation observed during the formalin foot test, intrathecal application
Description: At the same time as the analgesia was accessed, the sedation effects of ACBC were determined in the acute and chronic peripheral pain formalin foot model. […] The mice were monitored for 40 min for sedation. aCSF and morphine controls were also tested. The presence or absence of sedation was determined by an observer blinded to the treatment based on degree of spontaneous activity, posture and response to normal stimuli.

[2] = system: formalin foot mice; test: Formalin foot acute and chronic peripheral pain model, intrathecal application
[3] = system: Neurons of the ventrobasal nuclei (thalamocortical neurons); test: Current- and voltage-clamp recording of thalamic neurons in in vitro slice preparations; details: for equilibrium potential for the drug (intersection of drug and control I-V curves): voltage clamp, vs aCSF control curve
[4] = system: formalin foot mice; test: Formalin foot acute and chronic peripheral pain model, subcutaneous injection, up and down method; assay type: in vivo; details: Mus musculus, sc; subcutaneously, 5 minutes prior to formalin; up and down method of Dixon and Mood; block = 60% decrease of cumulated licking; read-out: ED50 for the reduction of paw licking by 60%
Description: This model involves pre-treatment with the test compound and injection of formalin (5% in 20 microliters) into the right hindpaw of mice. ACBC was injected subcutaneously 5 minutes prior to formalin injection. […] The up and down method of Dixon and Mood was used to establish the ED50.

[5] = ACBC 5 μL of 250 μM 5 minutes before formalin 5% in 20 μL hindpaw, N=5, P<0.05 vs control
[6] = ACBC 1 μM, normalized to control 5 minutes prior to drug application, single neuron

SMILES	sedation / gross appearance and behavior (in words) ([1]; intrathecal, acute and chronic phase of formalin foot test)	Number of mice with sedation ([1]; of 5 mice, intrathecal (ACBC 5 μL of 250 μM), monitored 40 min, blinded observer)	phase I licking (early phase, acute pain) [2, 5]	slope of the I-V curve ([3]; Glycine 150 μM)	equilibrium potential for the drug (intersection of drug and control I-V curves) ([3]; Glycine 150 μM)	behavioral toxicity ([1]; mouse, in vivo)	sedation / gross appearance and behavior (in words) ([1]; mouse, in vivo)	Number of mice with sedation ([1]; mouse, in vivo, 40 min)	ED50 [4]	phase II licking (late phase, chronic pain) [2, 5]	cumulative paw licking ([2]; ACBC 5 μL of 250 μM, monitored 40 minutes, p<0.05)	analgesia compared with morphine, acute and chronic phases ([2]; formalin foot test)	slope of the I-V curve ([3]; ACBC 1 μM)	holding current 20 minutes after application ([3]; ACBC 1 μM, 3 min application, voltage-clamped at −60 mV, control 33 pA)	Input resistance (Ri) [3, 6]	Membrane potential (Vm) [3, 6]	tonic firing evoked by current pulse injection ([3]; ACBC 1 μM, ventrobasal thalamus, holding potential −60 mV)	equilibrium potential for the drug (intersection of drug and control I-V curves) ([3]; ACBC 1 μM)	persistence of induced outward current ([3]; voltage clamped neurons)
CN1CC[C@]23c4c5ccc(O)c4O[C@H]2[C@@H](O)C=C[C@H]3[C@H]1C5 [Morphine, reference compound]	nearly immobile	5	Morphine <control																
NCC(=O)O [Glycine, reference compound]				increased the slope of the I-V curve	−53 mV														
NC1(C(=O)O)CCC1 [ACBC, 1-amino-cyclobutane-1-carboxylic acid]			significantly reduced; also recorded: greatly reduces			no observed behavioral toxicity	No sedation occurred	0*	94 mg/kg	significantly reduced; also recorded: greatly reduces	significantly reduced	equal to that produced by morphine	increased the slope of the I-V curve	153 pA	increase in membrane input resistance; also recorded: decreased	decreased	depressed action potential firing; also recorded: depressed tonic firing	−92 mV	greater than 60 minutes
